PubChem BioAssay AID1259407 (Chemical Carcinogenesis Research Information System (CCRIS), 2018)
Activity calls are given as the source filed them. No rule for the calls is given here.

System: CCRIS mutagenicity, Ames/micronucleus/aberration tests
Assay: CCRIS mutagenicity studies
[1] = Test System: AMES SALMONELLA TYPHIMURIUM, Strain/Indicator: TA97, Metabolic Activation: NONE, Method: STANDARD PLATE
[2] = Test System: AMES SALMONELLA TYPHIMURIUM, Strain/Indicator: TA98, Metabolic Activation: NONE, Method: STANDARD PLATE
[3] = Test System: AMES SALMONELLA TYPHIMURIUM, Strain/Indicator: TA98, Metabolic Activation: RAT, LIVER, S-9, AROCLOR 1254, Method: STANDARD PLATE
[4] = Test System: AMES SALMONELLA TYPHIMURIUM, Strain/Indicator: TA100, Metabolic Activation: NONE, Method: STANDARD PLATE
[5] = Test System: AMES SALMONELLA TYPHIMURIUM, Strain/Indicator: TA1537, Metabolic Activation: NONE, Method: STANDARD PLATE
[6] = Test System: AMES SALMONELLA TYPHIMURIUM, Strain/Indicator: TA1538, Metabolic Activation: NONE, Method: STANDARD PLATE
[7] = Test System: AMES SALMONELLA TYPHIMURIUM, Strain/Indicator: TA100, Metabolic Activation: RAT, LIVER, S-9, AROCLOR 1254, Method: STANDARD PLATE

In the case of `CC[C@@]1(O)C[C@H](O[C@H]2C[C@H](N(C)C)[C@H](O[C@H]3C[C@H](O)[C@H](O[C@H]4CCC(=O)[C@H](C)O4)[C@H](C)O3)[C@H](C)O2)c2c(cc3c(c2O)C(=O)c2c(O)cccc2C3=O)[C@H]1C(=O)OC`, the mutagenic call [1] is reported as “inactive; negative”, the mutagenic call [2] is reported as “inactive; negative” and the mutagenic call [3] is reported as “inactive; negative”. For the same compound, the mutagenic call [4] was “inactive; negative”, the mutagenic call (Test System: AMES SALMONELLA TYPHIMURIUM, Strain/Indicator: TA104, Metabolic Activation: NONE, Method: STANDARD PLATE) was “active; positive” and the mutagenic call [5] was “inactive; negative”. The mutagenic call [6] was “inactive; negative”, the mutagenic call (Test System: AMES SALMONELLA TYPHIMURIUM, Strain/Indicator: TA2637, Metabolic Activation: NONE, Method: STANDARD PLATE) was “active; positive” and the mutagenic call (Test System: E. COLI, Strain/Indicator: WP2 (HCR), Metabolic Activation: NONE, Method: STANDARD PLATE) was “inactive; negative”.

For `N=c1c2ncn(C(c3ccccc3)c3ccccc3)c2ncn1O`, the mutagenic call [1] was “inactive; negative”, the mutagenic call (Test System: AMES SALMONELLA TYPHIMURIUM, Strain/Indicator: TA97, Metabolic Activation: RAT, LIVER, S-9, AROCLOR 1254, Method: STANDARD PLATE) was “inactive; negative” and the mutagenic call [2] was “inactive; negative”. For the same compound, the mutagenic call [3] was “active; positive”, the mutagenic call [4] was “inactive; negative” and the mutagenic call [7] was “inactive; negative”.

With `C#C[C@]1(O)CC[C@H]2[C@@H]3CCC4=CC(=O)CC[C@@H]4[C@H]3CC[C@@]21CC` the mutagenic call (End Point: IN VITRO CHROMOSOMAL ABERRATIONS, Test System: HUMAN LYMPHOCYTES, Metabolic Activation: NONE) was “active; positive at two higher doses (structural changes)”, the mutagenic call (End Point: IN VITRO CHROMOSOMAL ABERRATIONS, Test System: HUMAN LYMPHOCYTES, Metabolic Activation: RAT, LIVER, S-9, PHENOBARBITONE) was “active; positive at all dose levels (structural changes)” and the mutagenic call (Test System: AMES SALMONELLA TYPHIMURIUM, Strain/Indicator: TA98, Metabolic Activation: MOUSE, LIVER, S-9, Method: STANDARD PLATE) was “inactive; negative”. The mutagenic call [2] was “inactive; negative”, the mutagenic call [3] was “inactive; negative” and the mutagenic call (Test System: AMES SALMONELLA TYPHIMURIUM, Strain/Indicator: TA100, Metabolic Activation: MOUSE, LIVER, S-9, Method: STANDARD PLATE) was “inactive; negative”. For the same compound, the mutagenic call [4] was “inactive; negative”, the mutagenic call [7] was “inactive; negative” and the mutagenic call (Test System: AMES SALMONELLA TYPHIMURIUM, Strain/Indicator: TA1535, Metabolic Activation: MOUSE, LIVER, S-9, Method: STANDARD PLATE) was “inactive; negative”. The mutagenic call (Test System: AMES SALMONELLA TYPHIMURIUM, Strain/Indicator: TA1535, Metabolic Activation: NONE, Method: STANDARD PLATE) was “inactive; negative”, the mutagenic call (Test System: AMES SALMONELLA TYPHIMURIUM, Strain/Indicator: TA1535, Metabolic Activation: RAT, LIVER, S-9, AROCLOR 1254, Method: STANDARD PLATE) was “inactive; negative” and the mutagenic call (Test System: AMES SALMONELLA TYPHIMURIUM, Strain/Indicator: TA1537, Metabolic Activation: MOUSE, LIVER, S-9, Method: STANDARD PLATE) was “inactive; negative”. For the same compound, the mutagenic call [5] was “inactive; negative”, the mutagenic call (Test System: AMES SALMONELLA TYPHIMURIUM, Strain/Indicator: TA1537, Metabolic Activation: RAT, LIVER, S-9, AROCLOR 1254, Method: STANDARD PLATE) was “inactive; negative” and the mutagenic call (Test System: AMES SALMONELLA TYPHIMURIUM, Strain/Indicator: TA1538, Metabolic Activation: MOUSE, LIVER, S-9, Method: STANDARD PLATE) was “inactive; negative”. The mutagenic call [6] was “inactive; negative” and the mutagenic call (Test System: AMES SALMONELLA TYPHIMURIUM, Strain/Indicator: TA1538, Metabolic Activation: RAT, LIVER, S-9, AROCLOR 1254, Method: STANDARD PLATE) was “inactive; negative”.

With `COc1cc(S(=O)(=O)O)c(C)cc1N=Nc1c(O)ccc2cc(S(=O)(=O)O)ccc12` the mutagenic call (Test System: AMES SALMONELLA TYPHIMURIUM, Strain/Indicator: TA98, Metabolic Activation: NONE, Method: PREINCUBATION) was “inactive; negative”, the mutagenic call [2] was “inactive; negative” and the mutagenic call (Test System: AMES SALMONELLA TYPHIMURIUM, Strain/Indicator: TA98, Metabolic Activation: RAT LIVER S-9, AROCLOR 1254, Method: STANDARD PLATE) was “inactive; negative”. For the same compound, the mutagenic call (Test System: AMES SALMONELLA TYPHIMURIUM, Strain/Indicator: TA98, Metabolic Activation: S-9, Method: PREINCUBATION) was “inactive; negative”, the mutagenic call (Test System: AMES SALMONELLA TYPHIMURIUM, Strain/Indicator: TA100, Metabolic Activation: NONE, Method: PREINCUBATION) was “inactive; negative” and the mutagenic call [4] was “inactive; negative”. The mutagenic call (Test System: AMES SALMONELLA TYPHIMURIUM, Strain/Indicator: TA100, Metabolic Activation: RAT LIVER S-9, AROCLOR 1254, Method: STANDARD PLATE) was “inactive; negative” and the mutagenic call (Test System: AMES SALMONELLA TYPHIMURIUM, Strain/Indicator: TA100, Metabolic Activation: S-9, Method: PREINCUBATION) was “inactive; negative”.
